Earlier results, collected in PMC10931745 (International Journal of Molecular Sciences, 2024).

Experiments:
[1] = system: Staphylococcus aureus (ATCC 23235); design: method as in doi:10.1186/s40543-021-00294-2; settings: literature data ref 75; cited from earlier work
[2] = system: Escherichia coli (ATCC 25922); design: method as in PMID 36179970; settings: literature data ref 74; cited from earlier work
[3] = system: Klebsiella pneumoniae (ATCC 13883); design: method as in PMID 35203751; settings: literature data ref 77; cited from earlier work
[4] = system: Staphylococcus epidermidis (ATCC 14990); design: method as in PMID 16556639; settings: literature data ref 76; cited from earlier work
[5] = system: Enterococcus faecalis (ATCC 19433); design: method as in PMID 24586598; settings: literature data ref 78; cited from earlier work

Q: Which “M.B.C. S. aureus” value [1] does the source give for `CC1(C)S[C@@H]2[C@H](NC(=O)[C@H](N)c3ccccc3)C(=O)N2[C@H]1C(=O)O` [Ampicillin] here?
A: Its value is 1/(1) [75] µg/mL.

Q: And the “M.I.C. S. aureus” value [1]?
A: Its value is 1/(1) [75] µg/mL.

Q: And the “M.B.C. E. coli” value [2]?
A: The value was 4 µg/mL.

Q: What about the “M.I.C. E. coli” value [2] of the same compound?
A: Its value is 2 µg/mL.

Q: What does the source list for `CNC(C)C1CCC(N)C(OC2C(N)CC(N)C(OC3OCC(C)(O)C(NC)C3O)C2O)O1` (stereo not shown) [Gentamicin]?
A: M.B.C. K. pneumoniae [3]: > 40 µg/mL; M.I.C. K. pneumoniae [3]: 1.25 µg/mL; M.B.C. S. epidermidis [4]: 16 to 64 µg/mL; M.I.C. S. epidermidis [4]: 8 to 32 µg/mL; M.B.C. E. faecalis [5]: 128 µg/mL; M.I.C. E. faecalis [5]: 4 µg/mL
